Source: US20040171090A1, “Anti-tumor antigen against HTLV-I tumor or antigen epitope thereof” (priority 2001, published 2004)
Peptide text beside a SMILES is read from it.

Experiments:
[1] = tested on: HTLV-I-specific CTL cell lines; conditions: for cytotoxic activity of HTLV-I-specific CTL cell lines against target cells sensitized with peptide (FIG. 6): 15-24 mer peptides 10 μM, 37° C. 1 hour, release assay 6 hours; for cytotoxic activity of HTLV-I-specific CTL cell lines against target cells sensitized with peptide (FIG. 6) / cytotoxicity of long-term-cultured CTL cell lines against target cells sensitized with peptide (FIG. 7) / peptide concentration necessary to induce cytotoxic activity of the same extent as Tax 180-188: E/T 10; for cytotoxicity of long-term-cultured CTL cell lines against target cells sensitized with peptide (FIG. 7): peptides 10 μM; for peptide concentration necessary to induce cytotoxic activity of the same extent as Tax 180-188: G14 cells treated 1 hour with serially diluted peptide
[2] = tested on: HTLV-I-infected tumor cells, FPM1-V1AX; test: Vaccine effect: splenic T cells of immunized nu/+ rats transferred to nu/nu rats given FPM1-V1AX, tumor volume; format: in vivo, rat; conditions: nu/+ rats immunized subcutaneously twice, two-week interval, 100 μg peptide and/or ISS-ODN

| Compound | cytotoxic activity of HTLV-I-specific CTL cell lines against target cells sensitized with peptide (FIG. 6) ([1]; G14 cells) | also measured |
| --- | --- | --- |
| LGAFLTNVP [Tax 179-187] | – | CTL sensitivity of target cells sensitized with 9 amino acid synthetic peptides (FIG. 8) ([1]; G14 cells, 9 mer peptides, same method as for the 15-24 mers): exhibited CTL sensitivity |
| Tax 97-120: partially overlapping synthetic peptide (15-24 mers), partial peptide in the Tax protein (TTPNIPPSFLQAMRKYSPFRNGYM) | low cytotoxic activity | – |
| CC[C@H](C)[C@H](NC(=O)[C@H](CCCCN)NC(=O)[C@H](Cc1ccc(O)cc1)NC(=O)[C@H](CC(C)C)NC(=O)[C@H](CC(C)C)NC(=O)[C@H](CCC(=O)O)NC(=O)[C@H](CCC(=O)O)NC(=O)[C@@H](NC(=O)[C@H](CCCNC(=N)N)NC(=O)[C@H](CCCCN)NC(=O)[C@H](Cc1ccc(O)cc1)NC(=O)[C@@H]1CCCN1C(=O)[C@@H](NC(=O)[C@H](CC(N)=O)NC(=O)[C@@H](NC(=O)[C@H](CC(C)C)NC(=O)[C@H](Cc1ccccc1)NC(=O)[C@H](C)NC(=O)CNC(=O)[C@H](CC(C)C)NC(=O)[C@H](CCC(N)=O)NC(=O)CN)[C@@H](C)O)C(C)C)[C@@H](C)CC)C(=O)N[C@@H](CO)C(=O)N[C@@H](CC(C)C)C(=O)O [Tax 177-200] | effectively dissolve | cytotoxicity of long-term-cultured CTL cell lines against target cells sensitized with peptide (FIG. 7) ([1]; G14 cells): notably dissolved |
| 5′-TGACTGTGAACGTTCGAGATGA-3′ [ISS-ODN] | – | suppression effect on tumor proliferation by splenic T cells from immunized rats (tumor volume, FIG. 12) [2]: not recognized |
| Tax 33-56: partially overlapping synthetic peptide (15-24 mers), partial peptide in the Tax protein (GGLCSARLHRHALLATCPEHQITW) | low cytotoxic activity | – |
| Tax 81-104: partially overlapping synthetic peptide (15-24 mers), partial peptide in the Tax protein (QRTSKTLKVLTPPITHTTPNIPPS) | low cytotoxic activity | – |
| Tax 17-40: partially overlapping synthetic peptide (15-24 mers), partial peptide in the Tax protein (VYVFGDCVQGDWCPISGGLCSARL) | low cytotoxic activity | – |
| CC(C)C[C@H](NC(=O)[C@H](Cc1ccccc1)NC(=O)[C@H](C)N)C(=O)N[C@H](C(=O)N[C@@H](CC(N)=O)C(=O)N[C@H](C(=O)N1CCC[C@H]1C(=O)N[C@@H](Cc1ccc(O)cc1)C(=O)N[C@@H](CCCCN)C(=O)O)C(C)C)[C@@H](C)O [Tax 181-189] (H-AFLTNVPYK-OH; N-terminus and C-terminus assumed) | – | peptide concentration necessary to induce cytotoxic activity of the same extent as Tax 180-188 [1]: 1 µM |
| CC[C@H](C)[C@H](NC(=O)[C@H](CCCNC(=N)N)NC(=O)[C@H](CCCCN)NC(=O)[C@H](Cc1ccc(O)cc1)NC(=O)[C@@H]1CCCN1C(=O)[C@@H](NC(=O)[C@H](CC(N)=O)NC(=O)[C@@H](NC(=O)[C@H](CC(C)C)NC(=O)[C@H](Cc1ccccc1)NC(=O)[C@H](C)N)[C@@H](C)O)C(C)C)C(=O)N[C@@H](CCC(=O)O)C(=O)N[C@@H](CCC(=O)O)C(=O)N[C@@H](CC(C)C)C(=O)N[C@@H](CC(C)C)C(=O)O [Tax 181-195] | effectively dissolve | cytotoxicity of long-term-cultured CTL cell lines against target cells sensitized with peptide (FIG. 7) ([1]; G14 cells): notably dissolved |
| CC(C)C[C@H](NC(=O)[C@@H](N)Cc1ccccc1)C(=O)N[C@H](C(=O)N[C@@H](CC(N)=O)C(=O)N[C@H](C(=O)N1CCC[C@H]1C(=O)N[C@@H](Cc1ccc(O)cc1)C(=O)N[C@@H](CCCCN)C(=O)N[C@@H](CCCNC(=N)N)C(=O)O)C(C)C)[C@@H](C)O [Tax 182-190] (H-FLTNVPYKR-OH; N-terminus and C-terminus assumed) | – | peptide concentration necessary to induce cytotoxic activity of the same extent as Tax 180-188 [1]: 10 µM |
